Values quoted from earlier work in article PMC8250858, “A Systematic Study of the Stability, Safety, and Efficacy of the de novo Designed Antimicrobial Peptide PepD2 and Its Modified Derivatives Against Acinetobacter baumannii” (Frontiers in Microbiology, 2021).

Legend:
[1] = tested on: carbapenem-resistant A. baumannii; design: method as in Huang et al., 2012; conditions: intraperitoneal injection twice a day for 3 days; ref Huang et al., 2012; cited from earlier work
[2] = tested on: 20 strains of A. baumannii; design: method as in Huang et al., 2012; conditions: ref Huang et al., 2012; cited from earlier work

**Q.** What does the source list for C(LLKK)2C?
**A.** Mice rescued [1]: rescued half of the mice; MIC against 20 strains of A. baumannii [2]: 40 to 75 mg/L
